From article PMC12345137 (mBio, 2025)
“Also recorded” adds a separate entry of the source. Where two headings read alike, the source gives them in different places. Positions of bridges follow the written chain, without caps; N, C: chain ends. Residues, ends and D or L forms follow the SMILES beside them.

Tests used:
[1] = test system: S. epidermidis (SE) agr-II; conditions: fluorescence; at 100 nM; ref (11); cited from earlier work
[2] = test system: S. epidermidis (SE) agr-III; conditions: fluorescence; at 10 µM; ref (11); cited from earlier work
S. aureus (SA) agr-I = test system: S. aureus (SA) agr-I; set-up: method as in ref (5) (a number printed in a supplementary file, which may have a reference list of its own: not looked up in the article's list); conditions: hemolysis; ref (5); cited from earlier work
[3] = test system: S. epidermidis (SE) agr-I; conditions: fluorescence, ref (11), cited from earlier work
S. aureus (SA) agr-IV [4] = test system: S. aureus (SA) agr-IV; set-up: method as in ref (5) (a number printed in a supplementary file, which may have a reference list of its own: not looked up in the article's list); conditions: hemolysis; ref (5); cited from earlier work
S. aureus (SA) agr-III [5] = test system: S. aureus (SA) agr-III; set-up: method as in ref (5) (a number printed in a supplementary file, which may have a reference list of its own: not looked up in the article's list); conditions: hemolysis; ref (5); cited from earlier work
[6] = molecular target: S. aureus agr-I spa-GFP reporter strain (JE2, MRSA) (Staphylococcus aureus, UniProt A0A0H2XKA3); assay: Fluorescence reporter assay for agr deactivation of virulent S. aureus (JE2 spa-GFP); assay type: cell-based; conditions: GFP expression relative to non-induced cultures
S. aureus agr-I spa-GFP reporter strain (JE2, MRSA), sequence (A0A0H2XKA3 entry or part of it): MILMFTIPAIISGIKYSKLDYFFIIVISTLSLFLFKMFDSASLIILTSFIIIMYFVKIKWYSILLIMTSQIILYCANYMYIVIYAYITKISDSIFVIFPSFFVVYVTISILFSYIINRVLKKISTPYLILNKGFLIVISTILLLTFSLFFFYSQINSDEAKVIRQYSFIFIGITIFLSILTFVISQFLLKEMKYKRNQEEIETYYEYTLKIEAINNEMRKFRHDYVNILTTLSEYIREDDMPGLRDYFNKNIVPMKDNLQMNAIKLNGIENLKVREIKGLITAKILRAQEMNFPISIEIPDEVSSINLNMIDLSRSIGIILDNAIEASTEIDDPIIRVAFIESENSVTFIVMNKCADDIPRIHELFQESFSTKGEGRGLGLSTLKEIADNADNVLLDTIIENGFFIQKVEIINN
Protocol: A fluorescent reporter strain of S. aureus JE2 containing a plasmid with a spa::GFP promoter was constructed by transforming the strain with pALC1741 ([52]). Cultures of the reporter strain were grown from single colonies in TSB medium containing chloramphenicol (CAM, 10 μg/mL) and S. aureus AIP-I (1) (concentrations = 500 nM, 100 nM, or 50 nM) to OD600 = 0.2–0.3 (early exponential phase) at 37°C. Assays were performed in sterile black 96-well plates with clear bottoms. Peptide solutions (15 μL) in 1:5 serial dilutions from DMSO stock solutions (1 mM) in TSB medium were added to the 96-well plate in technical triplicate followed by the induced bacterial cultures (135 μL). Control wells were uninduced cultures containing no S. aureus AIP-I (1). The 96-well plates were incubated in a plate reader at 37°C shaking at 283 rpm and fluorescence (GFP: excitation 479 nm, emission 520 nm, automatic gain), and OD600 values were continuously measured. […] Relative GFP expression was plotted to obtain IC50 values by non-linear regression with variable slope using GraphPad Prism 10.4 software. All assays were performed in biological triplicate.

[7] = test system: S. aureus agr-I P3-YFP reporter strain; assay: Quorum sensing inhibition resistance development experiment; assay type: cell-based, Staphylococcus aureus; conditions: flow cytometry
Protocol: The next day, YFP expression levels were assessed by flow cytometry (YFP: excitation 500 nm, emission 541 nm), and the overnight cultures were diluted 1:250 in fresh TSB medium containing CAM and 33 or no peptide (final volume 2.0 mL) and incubated overnight at 37°C in a shaking incubator. The procedure was repeated in total for 15 days, and the passaged cultures were subsequently frozen at −80°C. The passaged cultures were inoculated from frozen stocks in 2.0 mL TSB medium containing CAM in 15 mL centrifugal tubes and incubated overnight at 37°C in a shaking incubator.

SA AgrC-IV = SA AgrC-IV (Staphylococcus aureus, UniProt Q309Z2); assay: β-Lactamase assay, reporter strain RN10829 (P2-agrA:P3-blaZ) with pagrC-IV; assay type: cell-based
SA AgrC-IV, sequence (Q309Z2 entry or part of it): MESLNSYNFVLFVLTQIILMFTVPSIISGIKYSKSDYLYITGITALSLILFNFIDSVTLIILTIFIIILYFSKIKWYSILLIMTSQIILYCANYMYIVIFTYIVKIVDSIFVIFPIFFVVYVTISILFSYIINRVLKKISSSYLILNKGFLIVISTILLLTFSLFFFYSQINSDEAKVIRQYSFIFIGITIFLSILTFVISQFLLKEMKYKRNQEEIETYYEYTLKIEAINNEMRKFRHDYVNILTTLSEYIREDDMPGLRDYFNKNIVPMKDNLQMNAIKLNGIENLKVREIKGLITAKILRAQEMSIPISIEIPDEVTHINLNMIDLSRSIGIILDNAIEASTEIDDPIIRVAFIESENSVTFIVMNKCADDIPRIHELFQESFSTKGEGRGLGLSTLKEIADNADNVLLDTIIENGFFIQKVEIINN
How it was run: (§1)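 Peptides at 10 μM–10 pM final were tested against 100 nM cognate AIP on early-exponential RN10829 cells that express the relevant AgrC from a plasmid and carry a chromosomal P3-blaZ reporter; incubation 1 h at 37°C. After freezing, β-lactamase was read as nitrocefin conversion at OD486, and IC50 came from non-linear regression of the rates.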

SA AgrC-III = SA AgrC-III (Staphylococcus aureus, UniProt O33590); assay: β-Lactamase assay, reporter strain RN10829 (P2-agrA:P3-blaZ) with pagrC-III; assay type: cell-based
SA AgrC-III, sequence (O33590 entry or part of it): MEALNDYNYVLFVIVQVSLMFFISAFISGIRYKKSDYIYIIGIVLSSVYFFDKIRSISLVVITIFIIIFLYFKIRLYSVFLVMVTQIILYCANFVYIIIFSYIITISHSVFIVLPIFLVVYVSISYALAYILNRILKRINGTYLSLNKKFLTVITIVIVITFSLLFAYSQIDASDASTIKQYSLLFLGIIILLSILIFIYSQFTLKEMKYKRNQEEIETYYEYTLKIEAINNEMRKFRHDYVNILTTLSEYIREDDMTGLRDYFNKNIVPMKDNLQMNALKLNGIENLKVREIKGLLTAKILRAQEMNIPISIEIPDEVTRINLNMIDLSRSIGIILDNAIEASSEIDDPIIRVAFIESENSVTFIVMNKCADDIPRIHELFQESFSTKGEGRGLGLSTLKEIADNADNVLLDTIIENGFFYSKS
How it was run: as §1

SA AgrC-II = SA AgrC-II (Staphylococcus aureus, UniProt O33587); assay: β-Lactamase assay, reporter strain RN10829 (P2-agrA:P3-blaZ) with pagrC-II; assay type: cell-based
SA AgrC-II, sequence (O33587 entry or part of it): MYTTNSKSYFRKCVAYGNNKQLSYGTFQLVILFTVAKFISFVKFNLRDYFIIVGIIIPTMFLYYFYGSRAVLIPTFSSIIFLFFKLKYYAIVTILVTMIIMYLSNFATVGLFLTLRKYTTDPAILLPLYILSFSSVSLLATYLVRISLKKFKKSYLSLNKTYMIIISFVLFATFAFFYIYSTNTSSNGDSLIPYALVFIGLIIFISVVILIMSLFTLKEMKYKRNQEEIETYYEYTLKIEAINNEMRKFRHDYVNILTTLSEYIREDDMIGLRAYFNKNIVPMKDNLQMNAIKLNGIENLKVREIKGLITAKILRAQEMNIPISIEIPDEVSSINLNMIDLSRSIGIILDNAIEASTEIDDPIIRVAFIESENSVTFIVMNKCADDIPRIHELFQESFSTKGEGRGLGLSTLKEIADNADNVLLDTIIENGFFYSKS
How it was run: as §1

S. aureus (SA) agr-II = conditions: b-lactamase, cited from earlier work
S. aureus (SA) agr-III [8] = conditions: b-lactamase, cited from earlier work
[9] = test system: S. epidermidis (SE) agr-I; set-up: method as in ref (9) (a number printed in a supplementary file, which may have a reference list of its own: not looked up in the article's list); conditions: HPLC d-toxin, ref (9); cited from earlier work
S. aureus (SA) agr-IV [10] = conditions: b-lactamase; ref (4); cited from earlier work

S. aureus AIP-III D4A [compound 57, reference compound]
inhibition at 100 nM, SE agr-II [1]: ~ 70% | inhibition at 10 µM, SE agr-III [2]: ~ 25% | IC50 (S. aureus (SA) agr-I): 0.082 nM | inhibition at 10 µM, SE agr-I ([3]; at 10 µM): ~ 25% | IC50 (S. aureus (SA) agr-IV [4]): 0.11 nM | IC50 (S. aureus (SA) agr-III [5]): 0.16 nM

NCCCC[C@H](N)C(=O)N[C@@H](Cc1ccc(O)cc1)C(=O)N[C@@H](Cc1ccc(O)cc1)C(=O)N1CCC[C@H]1C(=O)N[C@H]1CSC(=O)[C@H](Cc2ccccc2)NC(=O)[C@H](Cc2ccc(O)cc2)NC(=O)CNC(=O)[C@H](Cc2c[nH]c3ccccc23)NC1=O [compound 33, S. simulans AIP-II] (H-KYYPCWGYF; thioester 5-C)
IC50 ([6]; induced with 1 [50 nM]): 3.3 nM | IC50 ([6]; induced with 1 [100 nM]): 5.2 nM | IC50 ([6]; induced with 1 [500 nM]): 18.4 nM | agr activity during daily passaging for 15 days ([7]; 33 at 2 nM or 100 nM): full repression of agr activity; also recorded: repressed agr activity | susceptibility to QS inhibition after 15 passages compared with non-passaged reporter strain ([7]; passaged cultures treated with 33 (10–0.08 nM)): no change in potency; also recorded: remained equally susceptible | IC50 (SA AgrC-IV): 273 ± 26 nM | IC50 (SA AgrC-III): 198 ± 33 nM | IC50 (SA AgrC-II): 80 ± 7 nM

NCCCC[C@H](N)C(=O)N[C@@H](Cc1ccc(O)cc1)C(=O)N[C@@H](CC(N)=O)C(=O)N1CCC[C@H]1C(=O)N[C@H]1CSC(=O)[C@H](Cc2ccccc2)NC(=O)[C@H](Cc2ccc(O)cc2)NC(=O)CNC(=O)[C@H](Cc2c[nH]c3ccccc23)NC1=O [compound 34, S. simulans AIP-III] (H-KYNPCWGYF; thioester 5-C)
IC50 (SA AgrC-IV): 351 ± 60 nM | IC50 (SA AgrC-III): 103 ± 5 nM | IC50 (SA AgrC-II): 60 ± 7 nM

CC[C@H](C)[C@@H]1NC(=O)[C@H](Cc2ccccc2)NC(=O)[C@H](CC(=O)O)NC(=O)[C@@H](NC(=O)[C@@H](NC(=O)[C@H](CO)NC(=O)[C@@H](N)Cc2ccc(O)cc2)[C@@H](C)O)CSC(=O)[C@H](CCSC)NC1=O [compound 1, S. aureus AIP-I] (H-YSTCDFIM; thioester 4-C)
inhibition at 1000 nM, SE agr-I ([3]; at 1000 nM): no inhibition | IC50 (S. aureus (SA) agr-II; ref (2)): 3.4 ± 1.2 nM | IC50 (S. aureus (SA) agr-II; ref (4)): 25 nM | IC50 (S. aureus (SA) agr-III [8]; ref (2)): 3.1 ± 1.3 nM | IC50 (S. aureus (SA) agr-III [8]; ref (4)): 3 nM | inhibition at 1000 nM, SE agr-I [9]: no inhibition | EC50 (S. aureus (SA) agr-IV [10]): 26000 nM | IC50 (S. aureus (SA) agr-III [5]): 6.12 nM
